Bounds are passed on as bounds.

For data set [1], the target named is T1, OATP2B1 (Homo sapiens, UniProt O94956).
T1 construct: expressed in transfected cells; host or cells: MDCKII cells
T1 sequence (O94956 1-709): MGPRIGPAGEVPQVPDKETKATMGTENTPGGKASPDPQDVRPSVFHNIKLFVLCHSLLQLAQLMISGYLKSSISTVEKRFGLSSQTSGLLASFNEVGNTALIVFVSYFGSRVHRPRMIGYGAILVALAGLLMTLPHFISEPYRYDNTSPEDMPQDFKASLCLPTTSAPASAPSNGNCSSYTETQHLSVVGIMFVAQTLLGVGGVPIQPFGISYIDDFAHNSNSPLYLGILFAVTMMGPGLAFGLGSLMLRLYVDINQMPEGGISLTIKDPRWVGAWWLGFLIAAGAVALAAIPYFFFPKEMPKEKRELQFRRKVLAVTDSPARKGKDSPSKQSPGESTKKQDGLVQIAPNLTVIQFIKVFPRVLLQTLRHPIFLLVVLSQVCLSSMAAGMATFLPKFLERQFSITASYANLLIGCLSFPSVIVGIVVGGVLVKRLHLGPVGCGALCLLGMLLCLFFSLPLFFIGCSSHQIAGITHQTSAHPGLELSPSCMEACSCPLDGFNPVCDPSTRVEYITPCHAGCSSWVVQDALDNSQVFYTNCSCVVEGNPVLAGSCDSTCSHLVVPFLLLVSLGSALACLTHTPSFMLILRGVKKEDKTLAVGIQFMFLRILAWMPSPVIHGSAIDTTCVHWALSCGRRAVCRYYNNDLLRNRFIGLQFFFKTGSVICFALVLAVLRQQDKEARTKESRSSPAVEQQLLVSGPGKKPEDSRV
Briefly: Direct uptake transporter assay, OATP2B1. Type of data set: in vitro ADME. Conditions: for Accumulation in transporter transfected cells: OATP2B1-transfected cells; for Accumulation in parental cells: parental MDCKII cells (OATP2B1 line). How it is done: To determine whether memantine is a substrate of the human OATP2B1 (OATP-B), OCT1, OCT2, OAT3, PEPT1, PEPT2 uptake transporters.
The potential for memantine to be a substrate of an uptake transporter was determined directly by comparing the uptake of memantine into cells expressing the selected uptake transporter with its uptake into control cells. Memantine was added to transporter-expressing and control cells at two concentrations (PEPT1 and PEPT2 100 and 300 µM, OCT1 and OCT2 50 and 100 µM, OATP2B1 100 and 300 µM), and incubated with cells for 2 and 20 min at 37±1°C (75 µL final incubation volume). […] Incubations were carried out as described in the indirect uptake transporter assays. The concentration of memantine was determined by LC-MS/MS.

Data set [2] deals with rat AD model. Conditions: cited from earlier work.

`CC12CC3CC(C)(C1)CC(N)(C3)C2` [memantine]: the “substrate of OATP2B1 uptake transporter” value in data set [1] is given as “appeared to be a substrate”. Besides, in data set [1] (OATP2B1), the “accumulation in transporter-transfected cells higher than in parental cells” value is listed as greater than 1.5 fold. For the same compound, in data set [1] (OATP2B1, 300 µM, 20 min), the “Highest Fold Activation” value is 2.1 (300 µM, 20 min). Besides, the “Accumulation in transporter transfected cells” value turned out to be 11317 pmol/mg in data set [1] (2 min, 100 µM); 18296 pmol/mg in data set [1] (2 min, 300 µM); 20820 pmol/mg in data set [1] (20 min, 100 µM); 45866 pmol/mg in data set [1] (20 min, 300 µM). The “Accumulation in parental cells” value in data set [1] (2 min, 100 µM) stood at 6409 pmol/mg; in data set [1] (2 min, 300 µM), 10891 pmol/mg; in data set [1] (20 min, 100 µM), 10889 pmol/mg; in data set [1] (20 min, 300 µM), 21496 pmol/mg. In addition, the cognition entry in data set [2] is recorded as “improved cognition”. The neuroprotection result in data set [2] is “elicited neuroprotective effects”.

The record behind these values is PMC3269340, “Pharmacokinetics of memantine in rats and mice” (PLoS Currents, 2012).
